Experimental data: US20240350447A1, “DELIVERY METHODS FOR TREATING BRAIN AND CENTRAL NERVOUS SYSTEM DISEASES” (JENIVISION INC., priority 2021, published 2024)

Columns and labels:
[1] = Biodistribution of JV-DE1 after periorbital skin (NIODP) application to one eye; format: in vivo, Cynomolgus monkeys; settings: 165.4 μg to OD via NIODP; for OS/OD retina ratio of JV-DE1: undosed/dosed retina
Description: An experiment was performed to determine the biodisposition of 4,5-dihydro-N-[4-[[4-(1-methylethoxy) phenyl]methyl] phenyl]-1H-imadazol-2-amine (JV-DE1) following topical application to the periorbital skin that surrounds the anterior portion of the globe was performed.
165.4 μg of JV-DE1, a synthesized chemical compound, was applied to the right eye (OD) of Cynomolgus monkeys via NIODP. The monkeys were restrained from rubbing their eyes for 2 hours post dose and closely monitored by experimenter(s) to prevent cross-contamination of the untreated eye, yet JV-DE1 was quickly found in the undosed upper eyelid (733.4 ng/g), retina (5.2 ng/g) and Vitreous humor (1.03 ng/mL) as early as 0.5-hour post dose. Throughout the 3, 6, and 24-hour post dose points, low levels of JV-DE1 was detected in the retina at 5.5 ˜ 45.5 ng/g of the dosed eye, and 1.4 ˜ 6.3 ng/g of the undosed eye. The ratio of JV-DE1 in undoseD retina vs. the dosed retina was below 25.5% at all post dose time points tested.

[2] = Baseline endogenous levels of DHA, DHA-EE and JV-DE1; format: in vivo; settings: undosed Bama minipigs
Description: Endogenous levels were measured in the plasma, cerebrospinal fluid, ocular tissues (retina, optic nerve, ocular muscles), and brain. The endogenous levels DHA are not attributable to NIODP administration of DHA, DHA-EE, or JV-DE1. The baseline data collected in Table 4 was taken from the same lot of pigs, from the same vendor, as the information collected in Tables 5-7.

[3] = JV-DE1 distribution after single periorbital skin administration; format: in vivo, Bama minipigs
Description: In this example, 158.45 μg of 4,5-dihydro-N-[4-[[4-(1-methylethoxy) phenyl]methyl] phenyl]-1H-imadazol-2-amine (JV-DE1) was applied to the periorbital skin of a right eye of a Bama minipig. […] 1.37 ng/g of tissue and 1.35 ng/g of tissue of JV-DE1 was measured in the left and right halves of the brain, respectively. The average amount of JV-DE1 present in the brain 3 hours post-dosage was 1.36 ng/g.
Given that the average Bama pig brain weighs around 60 g, the amount of JV-DE1 delivered to the brain can be estimated to be […]. Therefore, 0.051% of the 158.45 μg of JV-DE1 administered to the periorbital skin was delivered to the brain, […] than the deliverability of DHA via NIODP. As a comparison, only about 0.025% of DHA that is orally administered is delivered to the brain or CNS.

[4] = JV-DE1 in cornea and retina after single eye drop administration; format: in vivo, New Zealand Rabbits; settings: 120 μg/eye eye drops to the right eye
Description: NIODP may be more efficient than topical eye drops for corneal delivery to treat corneal disorders, such as dry disease. […] Accordingly, NIODP may be used to deliver other compounds (such as DHA) to the cornea to treat corneal diseases, such as dry eye.

[5] = 3 h, JV-DE1 158.45 μg to periorbital skin of right eye

CC(C)Oc1ccc(Cc2ccc(NC3=NCCN3)cc2)cc1 [JV-DE1, 4,5-dihydro-N-[4-[[4-(1-methylethoxy)phenyl]methyl]phenyl]-1H-imadazol-2-amine]
JV-DE1 in plasma ([1]; 0 h post dose): BLQ
JV-DE1 in plasma ([1]; 0.5 h post dose): 0.131 ng/mL
JV-DE1 in plasma ([1]; 3 h post dose): 0.21 ng/mL
JV-DE1 in plasma ([1]; 6 h post dose): 0.26 ng/mL
JV-DE1 in plasma ([1]; 24 h post dose): BLQ
JV-DE1 in cornea ([1]; OD (dosed eye), 0.5 h): 9299.3 ng/g
JV-DE1 in retina ([1]; OD (dosed eye), 0.5 h): 39.6 ng/g
JV-DE1 in upper eyelid ([1]; OD (dosed eye), 0.5 h): 26535.4 ng/g
JV-DE1 in vitreous humor ([1]; OD (dosed eye), 0.5 h): 15.2 ng/mL
Retina/Upper eyelid ratio of JV-DE1 ([1]; OD (dosed eye), 0.5 h): 0.1%
JV-DE1 in cornea ([1]; OD (dosed eye), 3 h): 16688.7 ng/g
JV-DE1 in retina ([1]; OD (dosed eye), 3 h): 27.9 ng/g
JV-DE1 in upper eyelid ([1]; OD (dosed eye), 3 h): 32454.7 ng/g
JV-DE1 in vitreous humor ([1]; OD (dosed eye), 3 h): 7.79 ng/mL
Retina/Upper eyelid ratio of JV-DE1 ([1]; OD (dosed eye), 3 h): 0.1%
JV-DE1 in cornea ([1]; OD (dosed eye), 6 h): 23929.5 ng/g
JV-DE1 in retina ([1]; OD (dosed eye), 6 h): 45.5 ng/g
JV-DE1 in upper eyelid ([1]; OD (dosed eye), 6 h): 7945.6 ng/g
JV-DE1 in vitreous humor ([1]; OD (dosed eye), 6 h): 3.9 ng/mL
Retina/Upper eyelid ratio of JV-DE1 ([1]; OD (dosed eye), 6 h): 0.6%
JV-DE1 in cornea ([1]; OD (dosed eye), 24 h): 1621.3 ng/g
JV-DE1 in retina ([1]; OD (dosed eye), 24 h): 5.5 ng/g
JV-DE1 in upper eyelid ([1]; OD (dosed eye), 24 h): 11597.8 ng/g
JV-DE1 in vitreous humor ([1]; OD (dosed eye), 24 h): 18.97 ng/mL
Retina/Upper eyelid ratio of JV-DE1 ([1]; OD (dosed eye), 24 h): 0.0%
JV-DE1 in cornea ([1]; OS (undosed eye), 0.5 h): 0 ng/g
JV-DE1 in retina ([1]; OS (undosed eye), 0.5 h): 5.2 ng/g
JV-DE1 in upper eyelid ([1]; OS (undosed eye), 0.5 h): 733.4 ng/g
JV-DE1 in vitreous humor ([1]; OS (undosed eye), 0.5 h): 1.03 ng/mL
Retina/Upper eyelid ratio of JV-DE1 ([1]; OS (undosed eye), 0.5 h): 0.7%
JV-DE1 in cornea ([1]; OS (undosed eye), 3 h): 0 ng/g
JV-DE1 in retina ([1]; OS (undosed eye), 3 h): 6.3 ng/g
JV-DE1 in upper eyelid ([1]; OS (undosed eye), 3 h): 1637 ng/g
JV-DE1 in vitreous humor ([1]; OS (undosed eye), 3 h): 1.85 ng/mL
Retina/Upper eyelid ratio of JV-DE1 ([1]; OS (undosed eye), 3 h): 0.4%
JV-DE1 in cornea ([1]; OS (undosed eye), 6 h): 0 ng/g
JV-DE1 in retina ([1]; OS (undosed eye), 6 h): 4.8 ng/g
JV-DE1 in upper eyelid ([1]; OS (undosed eye), 6 h): 378.2 ng/g
JV-DE1 in vitreous humor ([1]; OS (undosed eye), 6 h): 0.57 ng/mL
Retina/Upper eyelid ratio of JV-DE1 ([1]; OS (undosed eye), 6 h): 1.3%
JV-DE1 in cornea ([1]; OS (undosed eye), 24 h): 0 ng/g
JV-DE1 in retina ([1]; OS (undosed eye), 24 h): 1.4 ng/g
JV-DE1 in upper eyelid ([1]; OS (undosed eye), 24 h): 46.3 ng/g
JV-DE1 in vitreous humor ([1]; OS (undosed eye), 24 h): 0 ng/mL
Retina/Upper eyelid ratio of JV-DE1 ([1]; OS (undosed eye), 24 h): 3.0%
Ratio of JV-DE1 in undosed retina vs. dosed retina ([1]; all post dose time points tested): below 25.5%
OS/OD retina ratio of JV-DE1 ([1]; 0.5 h): 13.1%
OS/OD retina ratio of JV-DE1 ([1]; 3 h): 22.6%
OS/OD retina ratio of JV-DE1 ([1]; 6 h): 10.5%
OS/OD retina ratio of JV-DE1 ([1]; 24 h): 25.5%
Baseline endogenous concentration in brain [2]: BLQ
Baseline endogenous concentration in cerebrospinal fluid [2]: BLQ
Baseline endogenous concentration in eye tissue homogenate including (Retina, optic nerve, ocular muscle) [2]: BLQ
Baseline endogenous concentration in plasma [2]: BLQ
Drug Concentration in Plasma ([3]; 0 h, JV-DE1 158.45 μg to periorbital skin of right eye): BLQ
Drug Concentration in Plasma ([3]; 1 h, JV-DE1 158.45 μg to periorbital skin of right eye): BLQ
Percentage of administered dose delivered to the brain ([3]; 3 h, JV-DE1 158.45 μg periorbital, whole brain estimate): 0.051%
% of administered dose: Cerebrospinal fluid [3, 5]: 0%
% of administered dose: brain-left [3, 5]: 0.0518%
% of administered dose: brain-right [3, 5]: 0.0513%
% of administered dose: inferior rectus muscle-left [3, 5]: 0.0061%
% of administered dose: inferior rectus muscle-right [3, 5]: 0.0170%
% of administered dose: lateral rectus muscle-left [3, 5]: 0.0063%
% of administered dose: lateral rectus muscle-right [3, 5]: 0.0175%
% of administered dose: medial rectus muscle-left [3, 5]: 0.0071%
% of administered dose: medial rectus muscle-right [3, 5]: 0.0260%
% of administered dose: optic nerve-left [3, 5]: 0.0006%
% of administered dose: optic nerve-right [3, 5]: 0.0047%
% of administered dose: retina-left [3, 5]: 0.0002%
% of administered dose: retina-right [3, 5]: 0.0003%
% of administered dose: superior rectus muscle-left [3, 5]: 0.0140%
% of administered dose: superior rectus muscle-right [3, 5]: 0.0237%
Average JV-DE1 present in the brain [3, 5]: 1.36 ng/g
Drug Concentration in Plasma [3, 5]: BLQ
Drug Concentration in Tissue: Cerebrospinal fluid [3, 5]: BLQ
Drug Concentration in Tissue: brain-left [3, 5]: 1.37 ng/g
Drug Concentration in Tissue: brain-right [3, 5]: 1.35 ng/g
Drug Concentration in Tissue: inferior rectus muscle-left [3, 5]: 57.27 ng/g
Drug Concentration in Tissue: inferior rectus muscle-right [3, 5]: 58.71 ng/g
Drug Concentration in Tissue: lateral rectus muscle-left [3, 5]: 53.65 ng/g
Drug Concentration in Tissue: lateral rectus muscle-right [3, 5]: 43.50 ng/g
Drug Concentration in Tissue: medial rectus muscle-left [3, 5]: 43.67 ng/g
Drug Concentration in Tissue: medial rectus muscle-right [3, 5]: 65.54 ng/g
Drug Concentration in Tissue: optic nerve-left [3, 5]: 11.94 ng/g
Drug Concentration in Tissue: optic nerve-right [3, 5]: 33.63 ng/g
Drug Concentration in Tissue: retina-left [3, 5]: 2.30 ng/g
Drug Concentration in Tissue: retina-right [3, 5]: 2.70 ng/g
Drug Concentration in Tissue: superior rectus muscle-left [3, 5]: 85.83 ng/g
Drug Concentration in Tissue: superior rectus muscle-right [3, 5]: 88.37 ng/g
Amount of JV-DE1 delivered to the brain (estimated) ([3]; 3 h, brain weight around 60 g, JV-DE1 158.45 μg periorbital): 80.6 ng
JV-DE1 in cornea ([4]; OD (dosed eye), 0.5 h): 12124.85 ng/g
JV-DE1 in retina ([4]; OD (dosed eye), 0.5 h): 92.03 ng/g
JV-DE1 in cornea ([4]; OD (dosed eye), 2 h): 5952.6 ng/g
JV-DE1 in retina ([4]; OD (dosed eye), 2 h): 49.13 ng/g
JV-DE1 in cornea ([4]; OD (dosed eye), 6 h): 5125.52 ng/g
JV-DE1 in retina ([4]; OD (dosed eye), 6 h): 58.87 ng/g
JV-DE1 in cornea ([4]; OD (dosed eye), 24 h): 542.19 ng/g
JV-DE1 in retina ([4]; OD (dosed eye), 24 h): 6.82 ng/g
JV-DE1 in cornea ([4]; OS (undosed eye), 0.5 h): 78.35 ng/g
JV-DE1 in retina ([4]; OS (undosed eye), 0.5 h): 7.35 ng/g
JV-DE1 in cornea ([4]; OS (undosed eye), 2 h): 28.92 ng/g
JV-DE1 in retina ([4]; OS (undosed eye), 2 h): 3.38 ng/g
JV-DE1 in cornea ([4]; OS (undosed eye), 6 h): 67.82 ng/g
JV-DE1 in retina ([4]; OS (undosed eye), 6 h): 1.42 ng/g
JV-DE1 in cornea ([4]; OS (undosed eye), 24 h): 11.03 ng/g
JV-DE1 in retina ([4]; OS (undosed eye), 24 h): BLQ
